Laboratory results as given in the supplement of paper PMC11699113.
Counter-ions that a name gives are not always drawn.

Tested on: ED cells (E. derm NBM-6, ATCC CCL-57)
Experiment: cell viability (ATP, CellTiter-Glo) relative to untreated control (fraction of control); higher = less cytotoxic

Cc1nnc(C(=O)NC(C)(C)c2nc(C(=O)NCc3ccc(F)cc3)c(O)c(=O)n2C)o1 [raltegravir]
cell viability
Conditions	0.5 µM	2 µM	5 µM	10 µM	25 µM	50 µM	80 µM	100 µM	200 µM	300 µM
incubation time: 1h	1.07	1.07	1.07	1.08	1.07	1.06	1.05	1.07	1.06	1.06
incubation time: 24h	1.02	1.02	1.02	1.03	1.02	1.01	0.983	0.999	0.982	0.963
incubation time: 72h	1.03	1.05	1.04	1.04	1.04	1.05	1.01	1.02	0.992	0.963
incubation time: 144h	0.994	0.999	1.03	1.03	1.04	1.04	1.03	1.02	0.991	0.955

O=C(NCc1c(F)cc(F)cc1F)c1cn2c(c(O)c1=O)C(=O)N1[C@H]3CC[C@H](C3)O[C@@H]1C2 [bictegravir]
cell viability
Conditions	0.06 µM	0.125 µM	0.325 µM	2 µM	5 µM	10 µM	20 µM	30 µM	42 µM	concentration (µM): C04 (printed 10, out of sequence, likely typo)
incubation time: 1h	1	0.997	0.994	0.995	0.987	0.99	0.993	0.994	0.98	1
incubation time: 24h	1.01	0.998	1.01	1.01	1.02	1.01	1.03	1.01	1	1.01
incubation time: 72h	1.07	1.09	1.1	1.1	1.11	1.11	1.08	1.05	0.997	1.09
incubation time: 144h	1.07	1.06	1.07	1.06	1.06	1.05	1.01	0.972	0.952	1.07

CC[C@H](C)[C@H](NC(=O)[C@H](CC(C)C)NC(=O)[C@H](CO)NC(=O)[C@H](Cc1cnc[nH]1)NC(=O)[C@@H](NC(=O)[C@H](CC(C)C)NC(=O)[C@H](CO)NC(=O)[C@@H](NC(=O)[C@H](Cc1ccc(O)cc1)NC(C)=O)[C@@H](C)O)[C@@H](C)CC)C(=O)N[C@@H](CCC(=O)O)C(=O)N[C@@H](CCC(=O)O)C(=O)N[C@@H](CO)C(=O)N[C@@H](CCC(N)=O)C(=O)N[C@@H](CC(N)=O)C(=O)N[C@@H](CCC(N)=O)C(=O)N[C@@H](CCC(N)=O)C(=O)N[C@@H](CCC(=O)O)C(=O)N[C@@H](CCCCN)C(=O)N[C@@H](CC(N)=O)C(=O)N[C@@H](CCC(=O)O)C(=O)N[C@@H](CCC(N)=O)C(=O)N[C@@H](CCC(=O)O)C(=O)N[C@@H](CC(C)C)C(=O)N[C@@H](CC(C)C)C(=O)N[C@@H](CCC(=O)O)C(=O)N[C@@H](CC(C)C)C(=O)N[C@@H](CC(=O)O)C(=O)N[C@@H](CCCCN)C(=O)N[C@@H](Cc1c[nH]c2ccccc12)C(=O)N[C@@H](C)C(=O)N[C@@H](CO)C(=O)N[C@@H](CC(C)C)C(=O)N[C@@H](Cc1c[nH]c2ccccc12)C(=O)N[C@@H](CC(N)=O)C(=O)N[C@@H](Cc1c[nH]c2ccccc12)C(=O)N[C@@H](Cc1ccccc1)C(N)=O [enfuvirtide]
cell viability
Conditions	0.03 µM	0.06 µM	0.125 µM	0.25 µM	0.5 µM	1 µM	2 µM	5 µM	8 µM	11 µM
incubation time: 1h	1.05	1.06	1.06	1.07	1.05	1.05	1.05	1.05	1.06	1.06
incubation time: 24h	1.06	1.07	1.06	1.07	1.06	1.06	1.06	1.07	1.05	1.04
incubation time: 72h	1.05	1.06	1.06	1.08	1.06	1.06	1.07	1.06	1.05	1.06
incubation time: 144h	1.02	1.03	1.03	1.04	1.03	1.03	1.04	1.04	1.06	1.04

CC(C)OC(=O)OCOP(=O)(CO[C@H](C)Cn1cnc2c(N)ncnc21)OCOC(=O)OC(C)C [tenofovir disoproxil fumarate]
cell viability
Conditions	0.5 µM	2 µM	5 µM	10 µM	20 µM	40 µM	50 µM	75 µM	100 µM	150 µM
incubation time: 1h	1.01	1.01	1.02	1.02	1.01	0.999	1	1	0.999	0.988
incubation time: 24h	1.02	1.01	1	0.98	0.95	0.89	0.855	0.795	0.721	0.613
incubation time: 72h	1	0.992	0.947	0.898	0.836	0.75	0.708	0.643	0.643	0.545
incubation time: 144h	1.02	0.993	0.941	0.877	0.833	0.766	0.737	0.662	0.624	0.527

CC(C)(C)NC(=O)[C@@H]1C[C@@H]2CCCC[C@@H]2CN1C[C@@H](O)[C@H](Cc1ccccc1)NC(=O)[C@H](CC(N)=O)NC(=O)c1ccc2ccccc2n1 [saquinavir]
cell viability
Conditions	0.25 µM	0.5 µM	2 µM	5 µM	10 µM	20 µM	25 µM	30 µM	50 µM	65 µM
incubation time: 1h	1.03	1.04	1.03	1.04	1.03	1	1.01	1.02	0.958	0.868
incubation time: 24h	0.995	1.01	1	0.992	0.955	0.896	0.872	0.868	0.75	0.583
incubation time: 72h	1.04	1.03	1.01	0.956	0.904	0.798	0.753	0.687	0.306	0.0705
incubation time: 144h	1.02	1.02	1	0.951	0.922	0.808	0.743	0.699	0.201	0.0214

Nc1nc(=O)n([C@@H]2CS[C@H](CO)O2)cc1F [emtricitabine]
cell viability
Conditions	0.5 µM	2 µM	5 µM	10 µM	25 µM	50 µM	80 µM	100 µM	200 µM	300 µM
incubation time: 1h	0.999	0.996	1.01	1.01	0.998	1	1.01	1.01	0.998	1.01
incubation time: 24h	0.998	1.02	1.02	1.04	1.04	1.03	1.03	1.03	1.01	1
incubation time: 72h	1.03	1.05	1.05	1.05	1.05	1.04	1.04	1.03	0.999	0.999
incubation time: 144h	1.03	1.05	1.06	1.06	1.06	1.05	1.04	1.05	1.05	1.02

CCC[C@@]1(CCc2ccccc2)CC(O)=C([C@H](CC)c2cccc(NS(=O)(=O)c3ccc(C(F)(F)F)cn3)c2)C(=O)O1 [tipranavir]
cell viability
Conditions	0.25 µM	0.5 µM	2 µM	5 µM	10 µM	20 µM	50 µM	100 µM	140 µM	166 µM
incubation time: 1h	1.01	1	0.997	1	1	0.982	0.958	0.789	0.636	0.622
incubation time: 24h	1.01	1	0.993	1	1.03	0.966	0.885	0.718	0.505	0.498
incubation time: 72h	1.04	1.04	1.04	1.02	1.01	0.99	0.822	0.557	0.294	0.212
incubation time: 144h	1	1.01	1.01	1	0.996	0.973	0.772	0.405	0.109	0.0669

O=C1Nc2ccc(Cl)cc2[C@@](C#CC2CC2)(C(F)(F)F)O1 [efavirenz]
cell viability
Conditions	0.5 µM	2 µM	5 µM	10 µM	20 µM	40 µM	50 µM	75 µM	100 µM	150 µM
incubation time: 1h	1.05	1.04	1.02	0.985	0.902	0.523	0.35	0.164	0.0891	0.0482
incubation time: 24h	0.985	0.989	1.01	0.999	0.979	0.618	0.194	0.00645	0.0077	0.00431
incubation time: 72h	1.04	1.04	1.04	1.03	1.01	0.907	0.659	0.0635	0.0176	0.00453
incubation time: 144h	1.02	1.02	1.02	1	0.969	0.862	0.574	0.128	0.113	0.00579

CC(C)c1nc(CN(C)C(=O)N[C@H](C(=O)N[C@@H](Cc2ccccc2)C[C@H](O)[C@H](Cc2ccccc2)NC(=O)OCc2cncs2)C(C)C)cs1 [ritonavir]
cell viability
Conditions	0.5 µM	2 µM	5 µM	10 µM	25 µM	50 µM	80 µM	100 µM	200 µM	300 µM
incubation time: 1h	1.05	1.05	1.05	1.03	1	0.976	0.899	0.879	0.881	0.887
incubation time: 24h	1.03	0.991	0.964	0.922	0.886	0.834	0.426	0.372	0.363	0.363
incubation time: 72h	1.01	0.949	0.868	0.81	0.763	0.686	0.00794	0.00652	0.00418	0.00806
incubation time: 144h	1	0.966	0.901	0.854	0.788	0.703	0.0753	0.0037	0.00476	0.00437

Cc1cc(C#N)cc(C)c1Oc1nc(Nc2ccc(C#N)cc2)nc(N)c1Br [etravirine]
cell viability
Conditions	0.5 µM	2 µM	5 µM	10 µM	25 µM	50 µM	80 µM	100 µM	200 µM	300 µM
incubation time: 1h	1.03	1.02	0.959	0.693	0.424	0.372	0.346	0.329	0.328	0.322
incubation time: 24h	1.06	1.02	1.04	0.986	0.866	0.817	0.679	0.674	0.413	0.249
incubation time: 72h	1.01	0.978	0.953	0.894	0.829	0.796	0.75	0.723	0.541	0.412
incubation time: 144h	1	0.994	0.97	0.927	0.871	0.835	0.784	0.775	0.626	0.525

Cc1cn([C@H]2C[C@H](N=[N+]=[N-])[C@@H](CO)O2)c(=O)[nH]c1=O [zidovudine]
cell viability
Conditions	0.5 µM	2 µM	5 µM	10 µM	25 µM	50 µM	80 µM	100 µM	200 µM	300 µM
incubation time: 1h	1.05	1.06	1.05	1.04	1.02	1.04	1.04	1.04	1.03	1.02
incubation time: 24h	1.06	1.05	1.02	1.02	1.02	1.05	0.981	0.98	1.04	0.958
incubation time: 72h	1.07	1.07	1.09	1.09	1.08	1.09	1.07	1.08	1.09	1.08
incubation time: 144h	1.01	1.03	1.03	1.03	1.04	1.03	1.03	1.04	1.06	1.06

Nc1nc(NC2CC2)c2ncn([C@H]3C=C[C@@H](CO)C3)c2n1 [abacavir]
cell viability
Conditions	0.5 µM	2 µM	5 µM	10 µM	25 µM	50 µM	80 µM	100 µM	200 µM	300 µM
incubation time: 1h	1	0.999	1	1	1	0.999	0.994	0.99	0.983	0.982
incubation time: 24h	1.01	1.02	1.01	1.01	0.99	0.944	0.924	0.91	0.846	0.788
incubation time: 72h	1.02	1.03	0.999	0.978	0.925	0.846	0.785	0.745	0.604	0.506
incubation time: 144h	1.04	1.02	0.992	0.949	0.884	0.816	0.754	0.735	0.596	0.458

COC(=O)N[C@H](C(=O)N[C@@H](Cc1ccccc1)[C@@H](O)CN(Cc1ccc(-c2ccccn2)cc1)NC(=O)[C@@H](NC(=O)OC)C(C)(C)C)C(C)(C)C [atazanavir]
cell viability
Conditions	0.125 µM	0.25 µM	0.5 µM	2 µM	10 µM	20 µM	50 µM	80 µM	100 µM	124 µM
incubation time: 1h	1.05	1.05	1.05	1.06	1.06	1.04	1.03	1.01	1.02	1.02
incubation time: 24h	1.07	1.08	1.07	1.07	1.06	1.06	1.03	0.979	0.941	0.798
incubation time: 72h	1.09	1.12	1.1	1.1	1.13	1.12	1.09	0.802	0.416	0.0698
incubation time: 144h	1.02	1.05	1.03	1.03	1.07	1.07	1.04	0.554	0.0524	0.00492
